# Measured values published in patent US20230313199A1, “TARGET FOR MODULATING BODY MASS” (Massachusetts Institute of Technology, priority 2020, published 2023).
# Key:
# 4B8^FL cells [1] = test: OCR and ECAR (Seahorse) in 4B8 cells complemented with full length MFSD7C; format: cell-based, human; conditions: heme 1 hour
# Procedure: FIGS. 4A-4H show NTD of MFSD7C mediates heme effect on mitochondrial respiration. FIGS. 4A-4C show comparison of basal OCR (FIG. 4A), maximal OCR (FIG. 4B) and ECAR (FIG. 4C) of THP-1, 4B8, and 4B8^FL and 4B8^ΔN cells treated with vehicle or heme for 1 hour (n=18 separate experiments). […] Cells were incubated with FPT for 6 hrs, washed and reseeded in poly-lysine coated glass bottom dishes. After cells attached to the glass, medium containing 40 μM heme was added. Cells in the same field were imaged immediately and again 1 hour later. Relative FPT fluorescent intensities, normalized to THP-1, from three experiments are shown. (n=3 independent experiments). […] THP-1, 4B8, 4B8^FL and 4B8^ΔN cells were treated with vehicle or heme for 1 hour and MMP was measured by using JC-10 Mitochondrial Membrane Potential Assay Kit followed by flow cytometry. […] Shown are representative Western blotting data (FIG. 4G) and quantification of band intensities from n=3 independent experiments (FIG. 4H). P-values were calculated using two-way ANOVA (*p<0.05, **p<0.01, ***p<0.005). […]
# Measurements of OCR, ECAR, and MMP. Oxygen consumption rate (OCR) and extracellular acidification rate (ECAR) were measured using XF96e Seahorse Extracellular Flux Analyzer per manufacturer's protocol. […]
# 4B8^FL cells [2] = test: MMP (JC-10 kit, flow cytometry) in 4B8 cells complemented with full length MFSD7C; format: cell-based, human; conditions: heme 1 hour
# Procedure: (§1) FIGS. 4A-4H show NTD of MFSD7C mediates heme effect on mitochondrial respiration. FIGS. 4A-4C show comparison of basal OCR (FIG. 4A), maximal OCR (FIG. 4B) and ECAR (FIG. 4C) of THP-1, 4B8, and 4B8^FL and 4B8^ΔN cells treated with vehicle or heme for 1 hour (n=18 separate experiments). […] Cells were incubated with FPT for 6 hrs, washed and reseeded in poly-lysine coated glass bottom dishes. After cells attached to the glass, medium containing 40 μM heme was added. Cells in the same field were imaged immediately and again 1 hour later. Relative FPT fluorescent intensities, normalized to THP-1, from three experiments are shown. (n=3 independent experiments). […] THP-1 cells were co-cultured with 4B8, 4B8^FL, or 4B8^ΔN in FPT solution for 6 hrs, washed and reseeded in poly-lysine coated glass bottom dishes. Cells were imaged by confocal laser-scanning microscopy. […] Representative images from three experiments are shown. Scale bar: 10 μm. […] THP-1, 4B8, 4B8^FL and 4B8^ΔN cells were treated with vehicle or heme for 1 hour and MMP was measured by using JC-10 Mitochondrial Membrane Potential Assay Kit followed by flow cytometry. […] Shown are representative Western blotting data (FIG. 4G) and quantification of band intensities from n=3 independent experiments (FIG. 4H). P-values were calculated using two-way ANOVA (*p<0.05, **p<0.01, ***p<0.005). […]
# NTD of human MFSD7C [3] = target: T1, NTD of human MFSD7C (Homo sapiens, UniProt Q9UPI3); test: Isothermal titration calorimetry of NTD binding to heme
# T1 construct: Plasmid harboring GST-His-tag-SUMO-NTD (amino acids 1-84); GST-His-tag-SUMO (N, cleaved yes); made in house; host or cells: Escherichia coli Lemo21(DE3)
# T1 sequence (Q9UPI3 1-84): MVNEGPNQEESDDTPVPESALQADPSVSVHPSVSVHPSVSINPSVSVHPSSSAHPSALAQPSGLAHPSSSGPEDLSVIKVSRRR
# [4] = test system: interactions between MFSD7C^ΔN and CYC1, NDUFA4, COX4i1, ATP5h and ATP5c1; test: Co-IP of HA-tagged MFSD7C^ΔN with ETC components; format: cell-based, murine; conditions: heme treatment before lysis
# Procedure: as §1
# NTD of human MFSD7C [5] = target: T1, NTD of human MFSD7C; test: Gel-filtration assay of NTD and heme; format: binding; conditions: Superdex 75; absorbance 380 nm, 415 nm and 230 nm
# Procedure: Gel-filtration assay. Purified NTD (200 μM) was incubated with freshly prepared heme (150 μM) in a 1 mL reaction containing 5% DMSO, 25 mM HEPES-NaOH pH 7.8, and 10 mM NaCl. The solution was run over Superdex 75 (24 mL) gel-filtration column at 0.3 mL/min rate using AKTA-FPLC. Absorbance was monitored at 230, 380, and 415 nm. 2 mL injection volume was subtracted from the final elution volume. Solution containing dissolved hemin in the reaction buffer without the NTD protein aggregated on top of the Superdex 75 column, thus this control was avoided in our experiments.
structure (smiles),measurement,setting,value
C=CC1=C(C)c2cc3[n-]c(cc4[n-]c(cc5nc(cc1n2)C(C)=C5C=C)c(C)c4CCC(=O)O)c(CCC(=O)O)c3C.[Fe+2] [heme],ECAR,4B8^FL cells [1],increased
same,OCR,4B8^FL cells [1],increased
same,MMP,4B8^FL cells [2],decreased
same,heme molecules bound by the NTD,NTD of human MFSD7C [3]; ITC,three
same,heme molecules the NTD is capable of binding,NTD of human MFSD7C [3]; overall conclusion of Example 2,2-3
same,disruption of interactions between MFSD7C^ΔN and ETC components (co-IP),[4],failed to disrupt
same,co-elution in gel-filtration chromatography,NTD of human MFSD7C [5],co-eluted with the NTD
